pIC50: −log10 of the molar value. Structures can show the parent of a compound that is named as a salt.
Assays:
[1] = test system: human cervical tumor cell line HeLa (ATCC CCL-2); assay: SAC-Formation - Nocodazole-Induced Assay; assay type: cell-based; conditions: 24 h, HeLa cells, nocodazole 0.1 μg/ml together with test compound, decrease of mitotic cells (phospho-histone H3 Ser10)
How it was run: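 Loss of phospho-histone H3 Ser10-positive cells, counted against Hoechst-stained nuclei by high-content imaging, marked mitotic breakthrough. Compounds (0.005–20 μM, 0.5% DMSO) were co-dosed with 0.1 μg/ml nocodazole onto HeLa cells for 24 h at 37 °C. Curves were fitted with a four-parameter Hill equation.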

[2] = test system: human cervical tumor cell line HeLa (ATCC CCL-2); assay: SAC-Formation - Paclitaxel-Induced Assay; assay type: cell-based; conditions: 24 h, HeLa cells, paclitaxel 0.05 μM, test range 0.005 μM-20 μM, read-out: IC50 [mol/l] SAC-Formation - Paclitaxel-Induced Assay
How it was run: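 Read-out is high-content imaging of anti-phospho-H3 Ser10 (mitosis) and Hoechst 33342 (DNA, cell number), with decreased mitotic fraction marking checkpoint breakthrough. Compounds (0.005–20 μM) and 0.05 μM paclitaxel co-added to overnight-plated HeLa for 24 h at 37° C; four-parameter Hill fit.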

Structure (SMILES) | pIC50 ([1]; Homo sapiens, HeLa) | pIC50 ([2]; Homo sapiens, HeLa) | pIC50 [1] | pIC50 [2]
Cc1nsc(Nc2cnc(C(F)(F)F)cn2)c1C(=O)Nc1ccc(OC2CCN(CC(F)(F)F)CC2)c(F)c1 [Example 163, N-(3-fluoro-4-{[1-(2,2,2-trifluoroethyl)piperidin-4-yl]oxy}phenyl)-3-methyl-5-{[5-(trifluoromethyl)pyrazin-2-yl]amino}-1,2-thiazole-4-carboxamide] | 7.21 | 7.41 | – | –
Cc1nsc(Nc2cnc(C(F)(F)F)cn2)c1C(=O)Nc1ccc(OC2CCN(CC(F)F)CC2)c(F)c1 [Example 164, N-(4-{[1-(2,2-difluoroethyl)piperidin-4-yl]oxy}-3-fluorophenyl)-3-methyl-5-{[5-(trifluoromethyl)pyrazin-2-yl]amino}-1,2-thiazole-4-carboxamide] | 7.08 | 6.85 | – | –
Cc1nsc(Nc2cnc(C(F)(F)F)cn2)c1C(=O)Nc1ccc(C(=O)NC2CCN(CC(F)(F)F)CC2)cc1 [Example 165, 3-methyl-N-(4-{[1-(2,2,2-trifluoroethyl)piperidin-4-yl]carbamoyl}phenyl)-5-{[5-(trifluoromethyl)pyrazin-2-yl]amino}-1,2-thiazole-4-carboxamide] | 6.62 | 6.23 | – | –
Cc1nsc(Nc2cncc(C(F)(F)F)n2)c1C(=O)Nc1ccc(OCC2CCCN(C(=O)OC(C)(C)C)C2)nc1 (centres unmarked) [Example 166, tert-butyl 3-{[(5-{[(3-methyl-5-{[6-(trifluoromethyl)pyrazin-2-yl]amino}-1,2-thiazol-4-yl)carbonyl]amino}pyridin-2-yl)oxy]methyl}piperidine-1-carboxylate] | 7.28 | 6.77 | – | –
Cc1nsc(Nc2cncc(C(F)(F)F)n2)c1C(=O)Nc1ccc(C(=O)NC2CCN(CC(F)(F)F)CC2)cc1 [Example 167, 3-methyl-N-(4-{[1-(2,2,2-trifluoroethyl)piperidin-4-yl]carbamoyl}phenyl)-5-{[6-(trifluoromethyl)pyrazin-2-yl]amino}-1,2-thiazole-4-carboxamide] | 7.04 | 6.47 | – | –
Cc1nsc(Nc2cncc(C(F)(F)F)n2)c1C(=O)Nc1ccc(F)c(OC2CCN(C(=O)OC(C)(C)C)CC2)c1 [Example 168, tert-butyl 4-(2-fluoro-5-{[(3-methyl-5-{[6-(trifluoromethyl)pyrazin-2-yl]amino}-1,2-thiazol-4-yl)carbonyl]amino}phenoxy)piperidine-1-carboxylate] | 7.77 | 7.12 | – | –
Cc1nsc(Nc2cnc3ccccc3n2)c1C(=O)Nc1ccc(N2CCOCC2)nc1 [Example 169, 3-methyl-N-[6-(morpholin-4-yl)pyridin-3-yl]-5-(quinoxalin-2-ylamino)-1,2-thiazole-4-carboxamide] | 5.60 | 4.85 | – | –
Cc1nsc(Nc2ccc(C#N)cn2)c1C(=O)Nc1ccc(N[C@@H](C)C(=O)OC(C)(C)C)nc1 [Example 170, tert-butyl N-{5-[({5-[(5-cyanopyridin-2-yl)amino]-3-methyl-1,2-thiazol-4-yl}carbonyl)amino]pyridin-2-yl}alaninate] | 5.64 | 5.96 | – | –
Cc1nsc(Nc2ccc(C#N)cn2)c1C(=O)Nc1ccc(NC2CCCN(C(=O)OC(C)(C)C)C2)nc1 (centres unmarked) [Example 171, tert-butyt 3-({5-[({5-[(5-cyanopyridin-2-yl)amino]-3-methyl-1,2-thiazol-4-yl}carbonyl)amino]pyridin-2-yl}amino)piperidine-1-carboxylate] | 7.15 | 5.40 | – | –
Cc1nsc(Nc2cnc3ccccc3n2)c1C(=O)Nc1ccc(NC2CC2)nc1 [Example 172, N-[6-(cyclopropylamino)pyridin-3-yl]-3-methyl-5-(quinoxalin-2-ylamino)-1,2-thiazole-4-carboxamide] | 5.46 | 5.64 | – | –
COc1ccc(NC(=O)c2c(C)nsc2Nc2ccc(C#N)cn2)c(N2CCOCC2)n1 [Example 173, 5-[(5-cyanopyridin-2-yl)amino]-N-[6-methoxy-2-(morpholin-4-yl)pyridin-3-yl]-3-methyl-1,2-thiazole-4-carboxamide] | 5.72 | 5.17 | – | –
Cc1nsc(Nc2cnc(C(F)(F)F)cn2)c1C(=O)Nc1ccc(F)c(OCC2CCCN(CC(F)F)C2)c1 (centres unmarked) [Example 335, N-(3-{[1-(2,2-difluoroethyl)piperidin-3-yl]methoxy}-4-fluorophenyl)-3-methyl-5-{[5-(trifluoromethyl)pyrazin-2-yl]amino}-1,2-thiazole-4-carboxamide] | – | – | 7.26 | 7.01
Cc1nsc(Nc2cnc(C(F)(F)F)cn2)c1C(=O)Nc1ccc(O[C@@H]2CCN(CC(F)(F)F)C2)nc1 [Example 421, 3-Methyl-N-(6-{[(3R)-1-(2,2,2-trifluoroethyl)pyrrolidin-3-yl]oxy}pyridin-3-yl)-5-{[5-(trifluoromethyl)pyrazin-2-yl]amino}-1,2-thiazole-4-carboxamide] | – | – | 6.47 | 6.48
Cc1nsc(Nc2cnc(C(F)(F)F)cn2)c1C(=O)Nc1ccc(OC[C@@H]2CCCN(CCC(F)(F)F)C2)nc1 [Example 422, 3-Methyl-5-{[5-(trifluoromethyl)pyrazin-2-yl]amino}-N-(6-{[(3R)-1-(3,3,3-trifluoropropyl)piperidin-3-yl]methoxy}pyridin-3-yl)-1,2-thiazole-4-carboxamide] | – | – | 7.40 | 7.06
Cc1nsc(Nc2cnc(C(F)(F)F)cn2)c1C(=O)Nc1ccc(O[C@@H]2CCN(CCC(F)(F)F)C2)nc1 [Example 423, 3-Methyl-5-{[5-(trifluoromethyl)pyrazin-2-yl]amino}-N-(6-{[(3R)-1-(3,3,3-trifluoropropyl)pyrrolidin-3-yl]oxy}pyridin-3-yl)-1,2-thiazole-4-carboxamide] | – | – | 7.33 | 6.85
Cc1nsc(Nc2cnc(C(F)(F)F)cn2)c1C(=O)Nc1ccc(OC2CCN(CCC(F)(F)F)CC2)nc1 [Example 426, 3-Methyl-5-{[5-(trifluoromethyl)pyrazin-2-yl]amino}-N-(6-{[1-(3,3,3-trifluoro-propyl)piperidin-4-yl]oxy}pyridin-3-yl)-1,2-thiazole-4-carboxamide, Salt with Hydrochloric Acid] | – | – | 7.52 | 7.49
